Laboratory results published in patent US7265152B2 (ViroPharma Incorporated, priority 2002, dated 2007).
Like-named read-outs stand apart in the source and are kept apart here.

Key:
HCV NS5B = target: T1, HCV NS5B (Hepatitis C virus genotype 1b, UniProt Q9WMX2); experiment: Inhibition of viral RNA-dependent RNA polymerase (RdRp), in vitro biochemical assay; set-up: species or system HCV genotype 1b virus (BB7); conditions: read-out: HCV pol-BB7 IC50
T1 construct: fusion protein, of which the carboxyl terminal 21 amino acids were removed to enhance its solubility; His tag (GSHHHHHH); made in house; host or cells: E. coli
Procedure, shortened: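 Purified recombinant NS5B from a genotype 1b consensus (BB7), His-tagged, E. coli-expressed, with the C-terminal 21 residues deleted. Inhibition of RdRp activity in vitro was measured, and IC50 is the concentration giving 50% inhibition.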

[1] = test system: HCV replicon (BB7 sequence) in Huh-7-Clone A cells; experiment: HCV replicon assay: ELISA of NS5A protein in replicon-containing cells (Inhibition of Viral RNA Replication); format: cell-based; conditions: Hepatitis C virus, read-out: Replicon
Procedure, shortened: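 Huh-7-Clone A cells carrying subgenomic BB7 HCV replicon (G418-selectable) incubated 72 h with compound. NS5A protein quantified by cell ELISA: glutaraldehyde fixation, anti-NS5A monoclonal plus HRP secondary, TMB read at OD 650 nm. EC50 derived from 8-point serial dilution dose curve.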

[2] = HCV NS5B RdRp, BB7, reported as range class
[3] = purified His-tagged NS5B (BB7), carboxyl terminal 21 amino acids removed
[4] = Huh-7-Clone A, NS5A ELISA, 72-hour incubation, ranges of EC50
[5] = ranges of EC50 in HCV replicon assay
[6] = HCV NS5B polymerase, BB7 (genotype 1b), values given as range classes A-D
[7] = HCV replicon assay, ranges of 50% effective concentration (EC50)
[8] = HCV NS5B RdRp, BB7, class symbols A-D
[9] = HCV replicon assay, ranges of EC50
[10] = HCV NS5B RdRp, BB7, activity class

With CNC(=O)c1c(-c2ccc(F)cc2)oc2cc(N)c(O)cc12 [Example 182, 6-Ainino-2-(4-fluoro-phenyl)-5-hydroxy-benzofuran-3-carboxylic acid methylamide] the IC50 (HCV NS5B; [2]) was 0.5 to 5 µM and the EC50 ([1]; HCV replicon, range of EC50) was < 30 µM.
In the case of CCOc1ccc2oc(-c3ccc(Cl)s3)c(C(=O)NC)c2c1 [Example 87, 2-(5-Chloro-thiophen-2-yl)-5-ethoxy-benzofuran-3-carboxylic acid methylamide], the IC50 (HCV NS5B; [3]) is reported as ≤ 0.5 µM and the EC50 [1, 4] is reported as < 10 µM.
CNC(=O)c1c(-c2ccc(F)cc2)oc2cc(C)c(OC(C)C)cc12 [Example 79, 2-(4-Fluoro-phenyl)-5-isopropoxy-6-methyl-benzofuran-3-carboxylic acid methylamide] was tested, and the IC50 (HCV NS5B; [3]) was ≤ 0.5 µM and the EC50 [1, 4] was < 10 µM.
CNC(=O)c1c(-c2ccc(F)cc2)oc2cc(-c3ccco3)c(OC(C)C)cc12 [Example 151, 2-(4-Fluoro-phenyl)-6-furan-2-yl-5-isopropoxy-benzofuran-3-carboxylic acid methylamide] was tested, and the IC50 (HCV NS5B; HCV NS5B RdRp, BB7 genotype 1b) was ≤ 0.5 µM and the EC50 [1, 5] was < 30 µM.
For CNC(=O)c1c(-c2ccc(F)cc2)oc2cc(N(C)S(C)(=O)=O)c(OCC(=O)Nc3nc(C)c(C)s3)cc12 [Example 417, 5-[(4,5-Dimethyl-thiazol-2-ylcarbamoyl)-methoxy]-2-(4-fluoro-phenyl)-6-(methanesulfonyl-methyl-amino)-benzofuran-3-carboxylic acid methylamide], the IC50 (HCV NS5B; [6]) was ≤ 0.5 µM and the EC50 [1, 7] was < 1 µM.
In the case of CNC(=O)c1c(-c2ccc(F)cc2)oc2cc(-c3nc(C)n[nH]3)c(OC)cc12 [Example 383, 2-(4-Fluoro-phenyl)-5-methoxy-6-(5-methyl-2H-[1,2,4]triazol-3-yl)-benzofuran-3-carboxylic acid methylamide], the IC50 (HCV NS5B; [6]) is reported as 0.5 to 5 µM and the EC50 [1, 7] is reported as < 10 µM.
With CNC(=O)c1c(-c2ccc(F)cc2)oc2cc(OCc3nnnn3C)c(OC)cc12 [Example 211, 2-(4-Fluoro-phenyl)-5-methoxy-6-(1-methyl-1H-tetrazol-5-ylmethoxy)-benzofuran-3-carboxylic acid methylamide] the IC50 (HCV NS5B; [2]) was ≤ 0.5 µM and the EC50 ([1]; HCV replicon, range of EC50) was < 1 µM.
For CNC(=O)c1c(-c2ccc(F)cc2)oc2cc(N(Cc3nccs3)S(C)(=O)=O)c(OC(C)C)cc12 [Example 285, 2-(4-Fluoro-phenyl)-5-isopropoxy-6-(methanesulfonyl-thiazol-2-ylmethyl-amino)-benzofuran-3-carboxylic acid methylamide], the IC50 (HCV NS5B; [8]) was ≤ 0.5 µM and the EC50 [1, 9] was < 1 µM.
CNC(=O)c1c(-c2ccc(Cl)s2)oc2ccc(OC)cc12 [Example 85, 2-(5-Chloro-thiophen-2-yl)-5-methoxy-benzofuran-3-carboxylic acid methylamide] was tested, and the IC50 (HCV NS5B; [3]) was ≤ 0.5 µM and the EC50 [1, 4] was < 10 µM.
CCNc1cc2oc(-c3ccc(F)cc3)c(C(=O)NC)c2c(Cl)c1O [Example 341, 4-Chloro-6-ethylamino-2-(4-fluoro-phenyl)-5-hydroxy-benzofuran-3-carboxylic acid methylamide] was tested, and the IC50 (HCV NS5B; [10]) was 0.5 to 5 µM and the EC50 [1, 9] was > 100 µM.
In the case of CNC(=O)c1c(-c2ccc(F)cc2)oc2cc(N(Cc3cscn3)S(C)(=O)=O)c(OC)cc12 [Example 291, 2-(4-Fluoro-phenyl)-6-(methanesulfonyl-thiazol-4-ylmethyl-amino)-5-methoxy-benzofuran-3-carboxylic acid methylamide], the IC50 (HCV NS5B; [8]) is reported as ≤ 0.5 µM and the EC50 [1, 9] is reported as < 1 µM.
CNC(=O)c1c(-c2ccc(F)cc2)oc2cc(C(C)O)c(OC(C)C)cc12 (centres unmarked) [Example 222, 2-(4-Fluoro-phenyl)-6-(1-hydroxy-ethyl)-5-isopropoxy-benzofuran-3-carboxylic acid methylamide] was tested, and the IC50 (HCV NS5B; [2]) was ≤ 0.5 µM and the EC50 ([1]; HCV replicon, range of EC50) was < 1 µM.
In the case of CNC(=O)c1c(-c2ccc(F)cc2)oc2cc(N(C3CCC3)S(C)(=O)=O)c(OC(C)C)cc12 [Example 190, 6-(Cyclobutyl-methanesulfonyl-amino)-2-(4-fluoro-phenyl)-5-isopropoxy-benzofuran-3-carboxylic acid methylamide], the IC50 (HCV NS5B; [2]) is reported as ≤ 0.5 µM and the EC50 ([1]; HCV replicon, range of EC50) is reported as < 1 µM.
With CNC(=O)c1c(-c2ccc(F)cc2)oc2cc(C(O)C(C)C)c(OC(C)C)cc12 (centres unmarked) [Example 238, 2-(4-Fluoro-phenyl)-6-(1-hydroxy-2-methyl-propyl)-5-isopropoxy-benzofuran-3-carboxylic acid methylamide] the IC50 (HCV NS5B; [2]) was ≤ 0.5 µM and the EC50 ([1]; HCV replicon, range of EC50) was < 1 µM.
With CNC(=O)c1c(-c2ccc(F)cc2)oc2cc(-c3ccncc3)c(OC(C)C)cc12 [Example 177, 2-(4-Fluoro-phenyl)-5-isopropoxy-6-pyridin-4-yl-benzofuran-3-carboxylic acid methylamide] the IC50 (HCV NS5B; [2]) was ≤ 0.5 µM and the EC50 ([1]; HCV replicon, range of EC50) was < 10 µM.
For CCc1cc2c(C(=O)NC)c(-c3ccc(F)cc3)oc2cc1N(Cc1cscn1)S(C)(=O)=O [Example 343, 5-Ethyl-2-(4-fluoro-phenyl)-6-(methanesulfonyl-thiazol-4-ylmethyl-amino)-benzofuran-3-carboxylic acid methylamide], the IC50 (HCV NS5B; [10]) was ≤ 0.5 µM and the EC50 [1, 9] was < 1 µM.
In the case of CNC(=O)c1c(-c2ccc(F)cc2)oc2cc(N(C)S(C)(=O)=O)c(OCc3nnc(N)[nH]3)cc12 [Example 402, 5-(5-Amino-4H-[1,2,4]triazol-3-ylmethoxy)-2-(4-fluoro-phenyl)-6-(methanesulfonyl-methyl-amino)-benzofuran-3-carboxylic acid methylamide], the IC50 (HCV NS5B; [6]) is reported as ≤ 0.5 µM and the EC50 [1, 7] is reported as < 1 µM.
With CNC(=O)c1c(-c2ccccc2F)oc2ccc(OC)cc12 [Example 58, 2-(2-Fluoro-phenyl)-5-methoxy-benzofuran-3-carboxylic acid methylamide] the IC50 (HCV NS5B; [3]) was 0.5 to 5 µM and the EC50 [1, 4] was < 10 µM.
With CNC(=O)c1c(-c2ccc(F)cc2)oc2cc(-c3cc[nH]c3)c(OC)cc12 [Example 317, 2-(4-Fluoro-phenyl)-5-methoxy-6-(1H-pyrrol-3-yl)-benzofuran-3-carboxylic acid methylamide] the IC50 (HCV NS5B; [8]) was 5 to 30 µM and the EC50 [1, 9] was < 1 µM.
CNC(=O)c1c(-c2ccc(F)cc2)oc2ccc(OCc3ccc(C(=O)O)cc3)cc12 [Example 259, 4-[2-(4-Fluoro-phenyl)-3-methylcarbamoyl-benzofuran-5-yloxymethyl]-benzoic acid] was tested, and the IC50 (HCV NS5B; [8]) was 0.5 to 5 µM and the EC50 [1, 9] was < 30 µM.
CNC(=O)c1c(-c2ccc(F)cc2)oc2cc(N3CCOCC3)c(OCc3cccc(C(=O)OC)c3)cc12 [Example 263, 3-[2-(4-Fluoro-phenyl)-3-methylcarbamoyl-6-morpholin-4-yl-benzofuran-5-yloxymethyl]-benzoic acid methyl ester] was tested, and the IC50 (HCV NS5B; [8]) was ≤ 0.5 µM and the EC50 [1, 9] was < 10 µM.
With CNC(=O)c1c(-c2ccc(F)cc2)oc2cc(N(C(C)=O)S(C)(=O)=O)c(OC)cc12 [Example 289, 6-(Acetyl-methanesulfonyl-amino)-2-(4-fluoro-phenyl)-5-methoxy-benzofuran-3-carboxylic acid methylamide] the IC50 (HCV NS5B; [8]) was ≤ 0.5 µM and the EC50 [1, 9] was < 1 µM.
With CCN(c1cc2oc(-c3ccc(F)cc3)c(C(=O)NC)c2cc1OC)S(C)(=O)=O [Example 277, 6-(Ethyl-methanesulfonyl-amino)-2-(4-fluoro-phenyl)-5-methoxy-benzofuran-3-carboxylic acid methylamide] the IC50 (HCV NS5B; [8]) was ≤ 0.5 µM and the EC50 [1, 9] was < 1 µM.
With CNC(=O)c1c(-c2ccc(F)cc2)oc2cc(N3CC(C)OC(C)C3)c(OC(C)C)cc12 (centres unmarked) [Example 138, 6-(2,6-Dimethyl-morpholin-4-yl)-2-(4-fluoro-phenyl)-5-isopropoxy-benzofuran-3-carboxylic acid methylamide] the IC50 (HCV NS5B; HCV NS5B RdRp, BB7 genotype 1b) was 0.5 to 5 µM and the EC50 [1, 5] was < 10 µM.
With CCCOc1cc2c(C(=O)NC)c(-c3ccc(F)cc3)oc2cc1N(C)S(C)(=O)=O [Example 348, 2-(4-Fluoro-phenyl)-6-(methanesulfonyl-methyl-amino)-5-propoxy-benzofuran-3-carboxylic acid methylamide] the IC50 (HCV NS5B; [10]) was ≤ 0.5 µM and the EC50 [1, 9] was < 1 µM.
CCOC(=O)c1csc(COc2cc3c(C(=O)NC)c(-c4ccc(F)cc4)oc3cc2N(C)S(C)(=O)=O)n1 [Example 392, 2-[2-(4-Fluoro-phenyl)-6-(methanesulfonyl-methyl-amino)-3-methylcarbamoyl-benzofuran-5-yloxymethyl]-thiazole-4-carboxylic acid ethyl ester] was tested, and the IC50 (HCV NS5B; [6]) was ≤ 0.5 µM and the EC50 [1, 7] was < 1 µM.
With CNC(=O)c1c(-c2ccc(F)cc2)oc2cc(N(C)S(C)(=O)=O)c(OC(C)C)cc12 [Example 111, 2-(4-Fluoro-phenyl)-5-isopropoxy-6-(methanesulfonyl-methyl-amino)-benzofuran-3-carboxylic acid methylamide] the IC50 (HCV NS5B; HCV NS5B RdRp, BB7 genotype 1b) was ≤ 0.5 µM and the EC50 [1, 5] was < 1 µM.
CNC(=O)c1c(-c2ccc(F)cc2)oc2cc(N(Cc3ccc(C(=O)OC)cc3)S(C)(=O)=O)c(OC(C)C)cc12 [Example 270, 4-({[2-(4-Fluoro-phenyl)-5-isopropoxy-3-methylcarbamoyl-benzofuran-6-yl]-methanesulfonyl-amino}-methyl)-benzoic acid methyl ester] was tested, and the IC50 (HCV NS5B; [8]) was ≤ 0.5 µM and the EC50 [1, 9] was < 1 µM.
